Test results as given in patent US20240269139A1, “COMPOUNDS FOR TARGETED PROTEIN DEGRADATION OF KINASES” (DANA-FARBER CANCER INSTITUTE, INC., priority 2020, published 2024).
Read-outs that look alike come from different tables or passages of the source.

How the values were obtained:
Assay type in all cases: cell-based
[1] = molecular target: protein kinases (human kinome) (Homo sapiens, UniProt Q14289)
[2] = molecular target: protein kinases (human kinome) (Homo sapiens, UniProt P51812); settings: RPS6KA3 (P51812), experiment wp076
protein kinases (human kinome) (Homo sapiens, UniProt P51812), sequence (P51812 whole entry): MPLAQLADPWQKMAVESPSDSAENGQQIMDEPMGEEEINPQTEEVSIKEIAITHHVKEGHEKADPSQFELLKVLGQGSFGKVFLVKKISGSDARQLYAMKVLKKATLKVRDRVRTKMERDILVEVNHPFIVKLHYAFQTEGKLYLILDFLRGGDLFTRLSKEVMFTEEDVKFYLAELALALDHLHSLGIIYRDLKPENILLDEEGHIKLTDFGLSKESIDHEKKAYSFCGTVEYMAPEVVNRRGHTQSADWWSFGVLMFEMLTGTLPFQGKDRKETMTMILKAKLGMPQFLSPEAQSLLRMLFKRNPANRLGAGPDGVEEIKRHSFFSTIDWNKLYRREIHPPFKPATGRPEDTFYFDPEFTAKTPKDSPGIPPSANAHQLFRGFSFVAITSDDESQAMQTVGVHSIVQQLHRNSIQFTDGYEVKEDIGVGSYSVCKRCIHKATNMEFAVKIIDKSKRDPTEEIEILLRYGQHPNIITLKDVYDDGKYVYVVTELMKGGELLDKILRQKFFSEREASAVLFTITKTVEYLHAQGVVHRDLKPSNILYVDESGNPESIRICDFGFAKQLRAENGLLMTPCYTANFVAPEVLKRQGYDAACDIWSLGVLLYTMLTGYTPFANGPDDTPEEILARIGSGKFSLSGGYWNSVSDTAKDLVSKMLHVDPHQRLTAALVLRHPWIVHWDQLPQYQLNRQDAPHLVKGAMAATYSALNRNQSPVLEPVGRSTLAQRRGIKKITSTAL

[3] = molecular target: T1, protein kinases (human kinome) (Homo sapiens, UniProt Q96L34); settings: experiment wp080
T1 sequence (Q96L34 1-752): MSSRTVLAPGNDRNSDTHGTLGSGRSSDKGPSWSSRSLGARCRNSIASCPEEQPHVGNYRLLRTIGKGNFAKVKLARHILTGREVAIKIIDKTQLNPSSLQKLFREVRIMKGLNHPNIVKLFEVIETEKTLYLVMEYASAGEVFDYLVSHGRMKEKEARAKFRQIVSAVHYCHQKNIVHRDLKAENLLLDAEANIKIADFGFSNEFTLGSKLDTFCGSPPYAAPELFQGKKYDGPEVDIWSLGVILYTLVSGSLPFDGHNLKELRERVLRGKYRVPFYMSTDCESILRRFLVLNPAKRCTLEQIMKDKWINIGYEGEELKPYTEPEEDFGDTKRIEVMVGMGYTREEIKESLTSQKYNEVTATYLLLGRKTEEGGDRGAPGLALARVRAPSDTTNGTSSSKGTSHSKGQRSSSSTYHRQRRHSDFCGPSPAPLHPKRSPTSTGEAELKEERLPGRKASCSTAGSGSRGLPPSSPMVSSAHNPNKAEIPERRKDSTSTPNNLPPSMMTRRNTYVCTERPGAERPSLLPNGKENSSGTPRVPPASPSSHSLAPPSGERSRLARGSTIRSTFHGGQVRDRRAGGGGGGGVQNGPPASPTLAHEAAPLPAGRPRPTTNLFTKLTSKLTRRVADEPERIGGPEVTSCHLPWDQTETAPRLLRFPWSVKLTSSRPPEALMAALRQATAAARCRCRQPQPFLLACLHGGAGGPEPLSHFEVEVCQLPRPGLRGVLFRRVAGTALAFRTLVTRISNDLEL

[4] = molecular target: protein kinases (human kinome) (Homo sapiens, UniProt P24941)

protein kinases (human kinome) (Homo sapiens, UniProt Q14289), sequence (Q14289 whole entry): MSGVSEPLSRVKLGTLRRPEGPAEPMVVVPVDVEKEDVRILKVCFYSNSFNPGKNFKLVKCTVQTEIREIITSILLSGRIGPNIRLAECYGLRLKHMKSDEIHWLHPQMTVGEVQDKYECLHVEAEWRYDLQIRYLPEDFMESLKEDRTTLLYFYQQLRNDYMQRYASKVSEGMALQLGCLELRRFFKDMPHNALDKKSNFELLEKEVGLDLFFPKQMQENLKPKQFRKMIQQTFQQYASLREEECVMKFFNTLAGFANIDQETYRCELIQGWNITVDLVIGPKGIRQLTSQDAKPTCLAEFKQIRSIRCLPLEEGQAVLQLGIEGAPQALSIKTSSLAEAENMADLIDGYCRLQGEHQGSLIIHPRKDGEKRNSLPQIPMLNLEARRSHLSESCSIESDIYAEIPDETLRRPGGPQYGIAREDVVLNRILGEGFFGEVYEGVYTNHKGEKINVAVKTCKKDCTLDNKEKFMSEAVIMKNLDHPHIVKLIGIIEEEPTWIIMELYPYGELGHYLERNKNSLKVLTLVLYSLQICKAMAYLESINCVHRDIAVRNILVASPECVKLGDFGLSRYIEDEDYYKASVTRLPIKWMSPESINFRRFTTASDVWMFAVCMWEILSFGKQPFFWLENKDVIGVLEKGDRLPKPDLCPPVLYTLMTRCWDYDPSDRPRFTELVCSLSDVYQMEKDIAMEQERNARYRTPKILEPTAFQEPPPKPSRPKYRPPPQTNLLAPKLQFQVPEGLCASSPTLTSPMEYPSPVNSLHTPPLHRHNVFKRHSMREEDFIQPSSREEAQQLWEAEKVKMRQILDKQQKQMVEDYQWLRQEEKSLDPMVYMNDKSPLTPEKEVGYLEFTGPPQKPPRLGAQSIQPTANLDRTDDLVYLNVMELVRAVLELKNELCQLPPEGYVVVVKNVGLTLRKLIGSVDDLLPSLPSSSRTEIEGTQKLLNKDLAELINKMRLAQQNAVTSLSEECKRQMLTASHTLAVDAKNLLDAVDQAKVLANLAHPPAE

Row | SMILES | logFC ([1]; PTK2B (Q14289-1) protein abundance, degrader vs DMSO, down) | logFC PTK2B ([1]; PTK2B, accession Q14289-1, experiment wp076, direction of change down) | logFC [2] | logFC ([2]; direction down) | logFC MARK4 ([3]; Accession Q96L34-1) | logFC MARK4 (Q96L34-1) [3] | logFC CDK2 (P24941-1) ([4]; Experiment wp117) | logFC CDK2 (P24941-1) ([4]; experiment wp080) | logFC CDK2 (P24941-1) ([4]; experiment wp080, direction of change down) | logFC CDK2 (P24941-1) ([4]; experiment wp117, direction of change down)
1 | CNC(=O)c1ccccc1Nc1cc(Nc2ccc(N3CCN(CCOCCOCCNC(=O)CNc4cccc5c4C(=O)N(C4CCC(=O)NC4=O)C5=O)CC3)cc2OC)ncc1C(F)(F)F (stereo not shown) [MFH.5.103.1] | −3.18 | −3.18 | −1.165 | −1.165 |  |  |  |  |  | 
2 | Cc1ncsc1-c1ccc([C@H](C)NC(=O)[C@@H]2C[C@@H](O)CN2C(=O)[C@@H](NC(=O)CCCCCN2CCN(c3ccc(Nc4ncc5scc(-c6cccc(NS(C)(=O)=O)c6)c5n4)cc3)CC2)C(C)(C)C)cc1 [RSS0680, (2S,4R)-1-((S)-3,3-Dimethyl-2-(6-(4-(4-((7-(3-(methylsulfonamido)phenyl)thieno[3,2-d]pyrimidin-2-yl)amino)phenyl)piperazin-1-yl)hexanamido)butanoyl)-4-hydroxy-N—((S)-1-(4-(4-methylthiazol-5yl)phenyl)ethyl)pyrrolidine-2-carboxamide] |  |  |  |  | −0.4537 | −0.4537 | −0.6588 | −0.4202 | −0.4202 | −0.6588
